According to patent publication US20050222158A1, “Method of treating migraine headaches using calcitonin gene related peptide mimetics” (priority 2004, published 2005):

Target: T1, human CGRP receptor (Homo sapiens, UniProt O60894+Q16602)
T1 construct: SK-N-MC cells that endogenously express the human CGRP receptor; endogenous in cells; host or cells: SK-N-MC cells (membrane homogenates)
Test: [125I]-CGRP radioligand binding assay, SK-N-MC cell homogenates
Settings: 40 pM [125I]-CGRP, room temperature
Procedure: Tissue culture. SK-N-MC cells were grown at 37° C. in 5% CO2 as a monolayer in medium consisting of MEM with Earle's salts and L-glutamine (Gibco) supplemented with 10% fetal bovine serum (Gibco). Radioligand binding assays. Cells were rinsed twice with phosphate-buffered saline (155 mM NaCl, 3.3 mM Na2HPO4, 1.1 mM KH2PO4, pH 7.4), and incubated for 5-10 min. at 4° C. in hypotonic lysis buffer consisting of 10 mM Tris (pH 7.4) and 5 mM EDTA. Cells were transferred from plates to polypropylene tubes (16×100 mm), homogenized and centrifuged at 32,000×g for 30 min. Pellets were resuspended in buffer consisting of 50 mM Tris (pH 7.4) and 1 mM EDTA, homogenized, and centrifuged again at 32,000×g for 30 min. Pellets were resuspended in 100 mM Tris-Cl pH 7.5, 10 mM MgCl2, 0.1% mammalian protease inhibitor cocktail (Sigma) and stored at −80° C. until needed. On the day of an experiment, homogenates were thawed and homogenized again. Binding of [^125I]-CGRP (NEN) was carried out in buffer containing 50 mM Tris-Cl pH 7.5, 5 mM MgCl2, 0.5% BSA. Homogenates (3.5 μg protein/well) were incubated with competitor compounds (solubilized in 100% DMSO at 100× their final assay concentrations) for one hour at room temperature. Then [^125I]-CGRP was added (40 pM final concentration) and the reaction incubated for one additional hour at room temperature. […]

T1 sequence (Q16602 23-461): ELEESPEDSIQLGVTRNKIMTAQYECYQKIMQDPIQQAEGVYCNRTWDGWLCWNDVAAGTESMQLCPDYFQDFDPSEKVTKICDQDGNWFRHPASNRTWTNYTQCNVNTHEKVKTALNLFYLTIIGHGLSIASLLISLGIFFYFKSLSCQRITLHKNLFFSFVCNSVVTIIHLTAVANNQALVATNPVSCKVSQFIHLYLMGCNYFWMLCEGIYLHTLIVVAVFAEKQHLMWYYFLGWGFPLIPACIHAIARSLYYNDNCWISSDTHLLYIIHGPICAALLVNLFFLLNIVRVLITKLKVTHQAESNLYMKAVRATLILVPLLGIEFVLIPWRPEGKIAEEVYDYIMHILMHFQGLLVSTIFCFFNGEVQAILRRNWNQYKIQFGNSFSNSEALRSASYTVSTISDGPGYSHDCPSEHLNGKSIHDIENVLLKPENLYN
T1 sequence (O60894 27-148): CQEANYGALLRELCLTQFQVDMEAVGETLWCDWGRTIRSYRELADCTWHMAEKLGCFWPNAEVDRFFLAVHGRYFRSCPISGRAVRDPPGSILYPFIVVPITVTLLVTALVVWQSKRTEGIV

IC50: 5160 nM
Structure (SMILES): CC(=O)c1ccc(NC(=O)N2CCC(=O)N3[C@@H]2CN(CCc2cccc(F)c2)C(=O)[C@@H]3CC(=O)OC2[C@H]3C[C@@H]4C[C@@H](C[C@H]2C4)C3)cc1 (stereo partly drawn) [Compound 29, {1-(4-Acetyl-phenylcarbamoyl)-(6S,9aS)-8-[2-(3-fluoro-phenyl)-ethyl]-4,7-dioxo-octahydro-pyrazino[1,2a]pyrimidin-6-yl}-acetic acid adamantan-2-yl ester]
